Assay results reported in patent US20240252474A1, “METHODS AND COMPOSITIONS COMPRISING A CARDIO-TOLERATED HDAC INHIBITOR” (HUYABIO International, LLC, priority 2023, published 2024).

Experiment: Phase 1b safety and tolerability of HBI-8000 combined with nivolumab (DLTs, TEAEs)
Assay type: in vivo
Settings: for Dose-limiting toxicity (DLT): + nivolumab, 28 days
Procedure: The present example, was a Phase Ib/2 open-label dose finding study for HBI-8000 (also referred to in the art as “chidamide” or “tucidinostat” and also referred to herein as a compound of formula I) in combination with nivolumab in patients with advanced solid tumors, including melanoma, RCC (renal cell carcinoma), and NSCLC (non-small cell lung cancer). This study was conducted in accordance with Good Clinical Practice guidelines and the Declaration of Helsinki and with assurance/approval from the US Department of Health and Human Services; the protocol was approved by the institutional review boards or ethics committees of all participating sites. All patients provided written informed consent to participate before enrollment. […]
HBI-8000 at three dose levels (20 mg, 30 mg, and 40 mg) given orally twice a week (BIW) were evaluated. Doses were taken approximate 30 minutes after a meal. The starting dose (20 mg) was selected based on pharmacokinetic profiles established for monotherapy in Japanese patients with T-cell lymphoma.
The decision to escalate the dose was based on the conventional 3+3 design and observed incidences of dose-limiting toxicities (DLTs). Each treatment cycle was defined as 28 days. […] Subjects experiencing DLT within the first two weeks after having received 100% of assigned dose of HBI-8000 are also evaluable for DLT. Unacceptable toxicities were defined as grade 3 or higher non-hematologic and hematologic toxicities with clinical complications. Unacceptable toxicities observed over the first 28 days following HBI-8000 administration were considered as DLTs. […] HBI-8000 administration continued until disease progression or unacceptable toxicity was observed. The efficacy of the combination was further evaluated in an expanded cohort of selected patient populations at RP2D based on an objective response rate according to Response Evaluation Criteria in Solid Tumors (RECIST) version 1.1 criteria, progression-free survival, and duration of responses.
Safety evaluations included physical examinations, vital signs, ECGs, ECOG performance status, and laboratory tests.
Statistical analyses of safety, tolerability, and anti-tumor activity were primarily descriptive in nature. Toxicities were tabulated by type and grade. The safety population included all patients who received ≥1 dose of HBI-8000 and nivolumab. Continuous variables were summarized using descriptive statistics and categorical variables were summarized with number and percentage at each category. Pharmacokinetic parameters were derived using noncompartmental methods with Phoenix® WinNonlin® Version 6.4 (Certara, L. P., Princeton, NJ, USA).

[1] = 40 mg HBI-8000 BIW + nivolumab, N = 7
[2] = 20, 30 and 40 mg HBI-8000 + nivolumab, N = 17

Nc1cc(F)ccc1NC(=O)c1ccc(CNC(=O)/C=C/c2cccnc2)cc1 [HBI-8000, N-(2-amino-4-fluorophenyl)-4-[[[(2E)-1-oxo-3-(3-pyridinyl)-2-propen-1-yl]amino]methyl]benzamide]
Any SAE, number of subjects [1]: 4 n
Any TEAE, number of subjects [1]: 7 n
Aspartate aminotransferase increased, All, G < 3 [1]: 1 (14) n (%)
Aspartate aminotransferase increased, Related Both, Any G [1]: 1 (14) n (%)
Atrial fibrillation, All, G < 3 [1]: 2 (29) n (%)
Atrial fibrillation, All, G ≥ 3 [1]: 1 (14) n (%)
Atrial fibrillation, Related Both, Any G [1]: 1 (14) n (%)
Contusion, All, G < 3 [1]: 3 (43) n (%)
Contusion, Related Both, Any G [1]: 2 (29) n (%)
Contusion, Related HBI, Any G [1]: 1 (14) n (%)
Decreased appetite, All, G < 3 [1]: 3 (43) n (%)
Decreased appetite, All, G ≥ 3 [1]: 1 (14) n (%)
Decreased appetite, Related Both, Any G [1]: 1 (14) n (%)
Decreased appetite, Related HBI, Any G [1]: 2 (29) n (%)
Dehydration, All, G < 3 [1]: 2 (29) n (%)
Diarrhoea, All, G < 3 [1]: 2 (29) n (%)
Diarrhoea, All, G ≥ 3 [1]: 1 (14) n (%)
Diarrhoea, Related Both, Any G [1]: 2 (29) n (%)
Diarrhoea, Related HBI, Any G [1]: 1 (14) n (%)
Dizziness, All, G < 3 [1]: 2 (29) n (%)
Dizziness, Related Both, Any G [1]: 1 (14) n (%)
Dizziness, Related HBI, Any G [1]: 1 (14) n (%)
Dyspnoea, All, G < 3 [1]: 3 (43) n (%)
Dyspnoea, All, G ≥ 3 [1]: 1 (14) n (%)
Dyspnoea, Related Both, Any G [1]: 1 (14) n (%)
Fall, All, G < 3 [1]: 2 (29) n (%)
Fatigue, All, G < 3 [1]: 2 (29) n (%)
Fatigue, All, G ≥ 3 [1]: 2 (29) n (%)
Fatigue, Related Both, Any G [1]: 2 (29) n (%)
Fatigue, Related HBI, Any G [1]: 1 (14) n (%)
Headache, All, G < 3 [1]: 1 (14) n (%)
Headache, All, G ≥ 3 [1]: 1 (14) n (%)
Headache, Related Both, Any G [1]: 1 (14) n (%)
Headache, Related HBI, Any G [1]: 1 (14) n (%)
Hypocalcaemia, All, G < 3 [1]: 2 (29) n (%)
Hypocalcaemia, Related Both, Any G [1]: 1 (14) n (%)
Hypocalcaemia, Related HBI, Any G [1]: 1 (14) n (%)
Hypokalemia, All, G < 3 [1]: 1 (14) n (%)
Hypokalemia, Related Both, Any G [1]: 1 (14) n (%)
Hypophosphataemia, All, G < 3 [1]: 2 (29) n (%)
Hypophosphataemia, Related Both, Any G [1]: 1 (14) n (%)
Hypophosphataemia, Related HBI, Any G [1]: 1 (14) n (%)
Hypotension, All, G < 3 [1]: 3 (43) n (%)
Hypotension, Related Both, Any G [1]: 1 (14) n (%)
Lipase increased, All, G < 3 [1]: 1 (14) n (%)
Lipase increased, Related Both, Any G [1]: 1 (14) n (%)
Lymphocyte count decreased, All, G < 3 [1]: 2 (29) n (%)
Lymphocyte count decreased, Related Both, Any G [1]: 2 (29) n (%)
Nausea, All, G < 3 [1]: 3 (43) n (%)
Nausea, Related Both, Any G [1]: 2 (29) n (%)
Nausea, Related HBI, Any G [1]: 2 (29) n (%)
Neutrophil count decreased, All, G < 3 [1]: 2 (29) n (%)
Neutrophil count decreased, All, G ≥ 3 [1]: 1 (14) n (%)
Neutrophil count decreased, Related Both, Any G [1]: 1 (14) n (%)
Neutrophil count decreased, Related HBI, Any G [1]: 1 (14) n (%)
Non-cardiac chest pain, All, G < 3 [1]: 2 (29) n (%)
Non-cardiac chest pain, Related HBI, Any G [1]: 1 (14) n (%)
Oedema peripheral, All, G < 3 [1]: 2 (29) n (%)
Oedema peripheral, Related Both, Any G [1]: 1 (14) n (%)
Platelet count decreased, All, G < 3 [1]: 3 (43) n (%)
Platelet count decreased, Related Both, Any G [1]: 1 (14) n (%)
Platelet count decreased, Related HBI, Any G [1]: 2 (29) n (%)
Pleural effusion, All, G < 3 [1]: 2 (29) n (%)
SAE related to HBI-8000 & Nivolumab, number of subjects [1]: 0 n
SAE related to HBI-8000 alone, number of subjects [1]: 0 n
TEAE related to HBI-8000 & Nivolumab, number of subjects [1]: 3 n
TEAE related to HBI-8000 alone, number of subjects [1]: 6 n
TEAE resulting in discontinuation of HBI-8000 alone, number of subjects [1]: 2 n
TEAE resulting in discontinuation of both HBI-8000 and Nivo, number of subjects [1]: 2 n
Vomiting, All, G < 3 [1]: 2 (29) n (%)
Vomiting, Related Both, Any G [1]: 2 (29) n (%)
Weight decreased, All, G < 3 [1]: 1 (14) n (%)
Weight decreased, Related Both, Any G [1]: 1 (14) n (%)
White blood cell count decreased, All, G < 3 [1]: 3 (43) n (%)
White blood cell count decreased, Related Both, Any G [1]: 1 (14) n (%)
White blood cell count decreased, Related HBI, Any G [1]: 2 (29) n (%)
Incidence of TEAE related to HBI-8000 alone versus dose (20, 30, 40 mg BIW + nivolumab): appeared to increase with escalating HBI-8000 dose
Alanine aminotransferase increased, Total [2]: 4 (24) n (%)
Anaemia, Total [2]: 8 (47) n (%)
Aspartate aminotransferase increased, Total [2]: 4 (24) n (%)
Atrial fibrillation, Total [2]: 4 (24) n (%)
Back pain, Total [2]: 4 (24) n (%)
Contusion, Total [2]: 4 (24) n (%)
Decreased appetite, Total [2]: 9 (53) n (%)
Dehydration, Total [2]: 5 (29) n (%)
Diarrhoea, Total [2]: 7 (41) n (%)
Dizziness, Total [2]: 5 (29) n (%)
Dyspnoea, Total [2]: 9 (53) n (%)
Fall, Total [2]: 4 (24) n (%)
Fatigue, Total [2]: 10 (59) n (%)
Headache, Total [2]: 4 (24) n (%)
Hypocalcaemia, Total [2]: 6 (35) n (%)
Hypokalemia, Total [2]: 5 (29) n (%)
Hypophosphataemia, Total [2]: 5 (29) n (%)
Hypotension, Total [2]: 5 (29) n (%)
Hypoxia, Total [2]: 4 (24) n (%)
Lipase increased, Total [2]: 5 (29) n (%)
Lymphocyte count decreased, Total [2]: 5 (29) n (%)
Nausea, Total [2]: 8 (47) n (%)
Neutrophil count decreased, Total [2]: 4 (24) n (%)
Non-cardiac chest pain, Total [2]: 4 (24) n (%)
Oedema peripheral, Total [2]: 7 (41) n (%)
Platelet count decreased, Total [2]: 7 (41) n (%)
Pleural effusion, Total [2]: 5 (29) n (%)
Vomiting, Total [2]: 4 (24) n (%)
Weight decreased, Total [2]: 7 (41) n (%)
White blood cell count decreased, Total [2]: 5 (29) n (%)
Dose-limiting toxicity (DLT) (20-mg dose cohort, 3 DLT-evaluable patients): None
Dose-limiting toxicity (DLT) (30-mg BIW dose cohort, 3 + 3 DLT-evaluable patients): None and No DLT
Patients with DLT: Grade 3 fatigue on days of HBI-8000 administration (40-mg cohort, 6 DLT-evaluable patients, RCC patient): 1 patient
Patients with DLT: Grade 3 headache after first dose and grade 3 diarrhea after third dose (40-mg cohort, 6 DLT-evaluable patients, melanoma patient): 1 patient
Any SAE, number of subjects (Total, all dose levels, N = 17): 11 n
Any TEAE, number of subjects (Total, all dose levels, N = 17): 17 n
TEAE related to HBI-8000 & Nivolumab, number of subjects (Total, all dose levels, N = 17): 11 n
TEAE related to HBI-8000 alone, number of subjects (Total, all dose levels, N = 17): 10 n
TEAE resulting in discontinuation of HBI-8000 alone, number of subjects (Total, all dose levels, N = 17): 5 n
TEAE resulting in discontinuation of both HBI-8000 and Nivo, number of subjects (Total, all dose levels, N = 17): 3 n
Patients who died of TEAE (unrelated to HBI-8000 or nivolumab) (all dose levels, N = 17): One
Patients with Grade 3 or higher TEAEs (all dose levels, N = 17): 15 patients
Patients with only Grade 1 and 2 TEAEs (all dose levels, N = 17): Two
Subjects with TEAEs attributed to the combination and TEAEs associated with HBI-8000 alone (all dose levels, N = 17): Six
Recommended phase II dose (RP2D) (in combination with nivolumab): 30 mg BIW
Maximum tolerated dose (MTD) (oral BIW in combination with nivolumab): < 40 mg
